Test results: PubChem BioAssay (NCI)
Values joined by “and” are separate entries in the source; they are usually repeats but may differ in a detail not shown here. Equal entries are not always repeated.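 Five compound concentrations were applied to cells in 96-well plates for 48 hours; endpoints were derived by simple linear interpolation of the resulting dose-response curve. Here, GI50 denotes the concentration required for 50% inhibition of growth. TGI: concentration producing complete growth inhibition.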

Tests used:
Assay in all cases: inhibition of tumour cell growth, NCI panel, 48 h
786-0 renal = test system: 786-0 renal
BT-549 breast = test system: BT-549 breast
CCRF-CEM leukemia = test system: CCRF-CEM leukemia
HL-60(TB) leukemia = test system: HL-60(TB) leukemia
MOLT-4 leukemia = test system: MOLT-4 leukemia
OVCAR-5 ovarian = test system: OVCAR-5 ovarian
TK-10 renal = test system: TK-10 renal
U251 CNS = test system: U251 CNS

Structure (SMILES)	GI50 (786-0 renal)	TGI (786-0 renal)	GI50 (BT-549 breast) [µM]	TGI (BT-549 breast) [µM]	GI50 (CCRF-CEM leukemia) [µM]	GI50 (HL-60(TB) leukemia)	TGI (HL-60(TB) leukemia) [µM]	GI50 (MOLT-4 leukemia) [µM]	TGI (MOLT-4 leukemia)	GI50 (OVCAR-5 ovarian)	TGI (OVCAR-5 ovarian)	GI50 (TK-10 renal) [µM]	TGI (TK-10 renal) [µM]	GI50 (U251 CNS)	TGI (U251 CNS) [µM]	TGI (CCRF-CEM leukemia)
Oc1ccc2ccccc2c1/C=N\Nc1ccccn1	0.618 µM	4.58 µM	3.84	> 54.9	0.328	0.267 µM	0.795	0.358	> 100 µM	4.25 µM	> 100 µM	4.85	> 100	0.427 µM	97.3	–
CN(C)CCn1cc(-c2ccc3c(Nc4ccc(CC(=O)Nc5cccc(F)c5)cc4)ncnc3c2)cn1	1.42 µM	2.87 µM	4.78	> 10	0.0178	1.95 µM	4.85	2.51	> 10 µM	1.58 µM	4.26 µM	1.62	4.21	1.56 µM	3.45	> 10 µM
CCOC1NC(=O)Oc2ccccc21 (stereo not given)	–	> 100 µM	–	> 100	–	–	> 100	–	> 100 µM	–	> 100 µM	–	> 100	–	> 100	> 100 µM
COc1ccc(-n2c(N)c(C(=O)NCCN3CCOCC3)c3nc4ccccc4nc32)cc1OC	2.02 µM	79.2 µM	27.6	> 100	5.15	21.8 µM	> 100	2.87	27.4 µM	> 100 µM	> 100 µM	31.9	> 100	8.68 µM	> 100	> 100 µM
Cc1ccc(/C=C(\C#N)n2nnc3cc(F)c(F)cc32)cc1	2.5 µM	11.9 µM	1.95	6.81	1.81	3.16 µM	> 100	2.7	36.5 µM	3.39 µM	> 100 µM	2.52	11.3	1.48 µM	2.94	> 100 µM
C[n+]1c2ccccc2c(NC2CCNCC2)c2[nH]c3ccccc3c21	2.46 µM	16.3 µM	2.13	13.3	0.48	1.8 µM	> 22.6	0.114	–	1.76 µM	17.6 µM	2.33	8.53	0.198 µM	1.91	3.13 µM
Cn1c(=O)c(F)c(Nc2ccc(I)cc2F)c2c(=O)n(C[C@@H](O)CO)cnc21	4.59 µM and 1.3 µM	21.4 µM and > 4.58 µM	12.6	> 95.8	–	< 0.01 µM and 0.00141 µM	23.1	18.4	45.1 µM and > 4.74 µM	< 0.01 µM and 0.0058 µM	35.3 µM and > 1.97 µM	–	26.4	0.741 µM and 0.246 µM	> 49.9	52 µM and > 7.18 µM
O=C1c2cc3c(cc2-c2c1c1ccc([N+](=O)[O-])cc1c(=O)n2CCCCl)OCO3	0.198 µM	> 100 µM	0.308	24.5	0.279	0.328 µM	> 28.8	0.0528	> 100 µM	0.634 µM	> 100 µM	> 54.3	> 100	0.0828 µM	–	> 100 µM
